Values after ≈ are worked out from the molar mass of the structure shown. Where two headings read alike, the source gives them in different places.
Tests used:
S. aureus biofilms = assay: Disruption of established biofilm, crystal violet staining; assay type: cell-based; settings: 24 h treatment
Procedure: (§1) Bacteria in biofilms are 10–1000 times more resistant to conventional antibiotics than planktonic bacteria. Moreover, biofilms are insensitive to antiseptics and many host immune responses. Since up to 80% of all microbial infections are biofilm-related, an effective antibacterial agent should also be able to disrupt established biofilms to tackle bacterial infections.
(§2) Bacterial cultures (S. aureus and E. coli) were grown in MHB media overnight at 37 °C with shaking at 120 rpm. Cultures were diluted (1:20) in an MHB medium and 200 μL aliquots were dispensed to flat bottom 96-well plate wells (Sarstedt, Mawson Lakes, Australia). Cultures were supplemented with varying concentrations of synthetic compounds dissolved in DMSO. Biofilm was grown in a 96-well plate for 24 h followed by the addition of synthetic compounds and incubated further for 24 h. Plates were sealed with self-adhesive microplate sealers (TopSeal-A, PerkinElmer) to allow air diffusion and to prevent condensation. Biofilms adhered on polystyrene substratum were quantified by crystal violet staining as described previously. The experiment was performed in triplicate.
Figure 4 Disruption of established biofilms of S. aureus after 24 h treatment with 1× to 8× MIC concentrations of compounds 13d, 16b, 19a, 19b. The positive control represents the pre-established biofilms without any compounds. Error bars indicate the standard error of the mean (SEM) of three independent experiments.

MRC-5 human fibroblasts [1] = assay: Toxicity assay, Alamar Blue; assay type: cell-based; settings: for IC50: MRC5, MRC-5 human fibroblasts, 72 h drug incubation, Alamar Blue
Procedure: Normal human lung fibroblasts MRC-5 were cultured in minimal essential medium (MEM, Invitrogen) supplemented with 10% foetal calf serum (FCS), 1% L-glutamine–penicillin–streptomycin, 2% sodium bicarbonate, 1% non-essential amino acids (NEAA), and 1% sodium pyruvate. The cell line was maintained at 37 °C in 5% CO2 as an adherent monolayer and was passaged upon reaching confluence by standard cell culture techniques. MRC-5 cells were seeded at 2 × 10^4 cells per well in 96-well plates to ensure full confluence (quiescence). Cells were treated for 24 h after seeding with 0.1 to 1000 μM of compounds. After 72 h of drug incubation, the treated media was replaced with fresh media containing 10% Alamar Blue and the cells were incubated for another 6 h. The metabolic activity was detected by spectrophotometric analysis by assessing the absorbance of Alamar blue as previously described by Pasquier et al. Cell proliferation was determined and expressed as a percentage of untreated control cells. The determination of IC50 values was performed using GraphPad Prism 6 (San Diego, CA, USA). Each experiment was performed in triplicate and was repeated in three independent experiments.

E. coli biofilms = assay: Disruption of established biofilm, crystal violet staining; assay type: cell-based; settings: 24 h treatment; for disruption of established E. coli biofilm (in words): 1× to 8× MIC; for disruption of E. coli biofilm mass: 2× MIC (62.4 µM)
Procedure: as §1, §2
Figure 5 Disruption of established biofilm of E. coli after 24 h treatment with 1× to 8× MIC concentrations of compounds 13d, 16b, 19a, and 19b. The negative control represents pre-established biofilms without any compounds. Error bars indicate the standard error of the mean (SEM) of three independent experiments.

[2] = tested on: Bacillus subtilis strain BS23; assay: Membrane integrity study, epifluorescence microscopy (atpA-GFP); assay type: cell-based; settings: 50 μM, 45 min
Procedure: The mechanism of action of compounds 16b, 19a, and […] was further studied using Bacillus subtilis strain BS23, which contains a fusion of green fluorescence protein (GFP) to the α-subunit of the membrane-localized ATP synthase. In the assay, if the compounds damage the membrane, the green fluorescence will change from a uniform distribution to a clustered distribution. Epifluorescence microscopy was used to image the changes in the cells.
Bacillus subtilis BS23 (atpA-GFP) was grown in LB (10 g/L Tryptone, 5 g/L Yeast Extract, 5 g/L NaCl) supplemented with 0.5% (w/v) xylose at 37 °C, to an OD600 of 0.3 and then treated with 50 μM of the AMP mimics, 10 μg/mL of colistin or 0.25% (v/v) DMSO (vehicle control). The cells were grown for a further 45 min before being examined by epifluorescence microscopy. Micrographs were background subtracted, merged, and aligned in images.
Figure 3 Epifluorescence microscopy images showing membrane integrity of B. subtilis strain BS23 treated with colistin (10 µg/mL) and compounds 16b, 19a, and 19b (50 µM).

S. aureus [3] = assay: Minimum inhibitory concentration, broth microdilution (CLSI); assay type: cell-based, Staphylococcus aureus; settings: for MIC90: broth microdilution in MHB, 18–24 h; for MIC: Table 2, lysine derivative versus parent, read-out: MIC S. aureus
Procedure: (§3) The antimicrobial activity of the compounds was evaluated by a broth microdilution assay using the procedure described by CLSI. Briefly, bacteria were grown to mid-log phase in Muller Hinton broth (MHB) with shaking at 120 rpm and incubated at 37 °C for 12–16 h. Following incubation, bacteria were washed three times in PBS pH 7.4 at 3500 g for 10 min. After washing, bacteria were diluted with fresh MHB. The turbidity of the bacterial suspensions was adjusted so that OD660nm was 0.1, which gave 1 × 10^8 CFU/mL, and then further diluted to achieve 5 × 10^5 CFU/mL as a final bacterial concentration. Each compound was diluted (250–3.9 µM) through two-fold dilution. Wells in microtiter plates were loaded with 100 µL of inoculum containing 5 × 10^5 CFU/mL bacteria. Wells without any compound and containing only bacteria were used as negative controls (i.e., no inhibition of growth). Wells with media only were set as blank. The microtiter plate was wrapped with paraffin to prevent evaporation and incubated with shaking at 120 rpm and 37 °C for 18–24 h. After incubation, spectrophotometric readings were taken. The well without any bacterial growth and showing zero spectrophotometric reading was regarded as the MIC of the compounds.

E. coli [4] = assay: as above; assay type: cell-based, Escherichia coli; settings: for MIC90 / MIC: Escherichia coli; for MIC90: broth microdilution in MHB, 18–24 h; for MIC: Table 2, lysine derivative versus parent, read-out: MIC E. coli
Procedure: as §3

S. aureus 38 = assay: Cytoplasmic membrane permeability (depolarization) assay with DiSC3(5); assay type: cell-based; settings: 2× MIC
Procedure: (§4) Compounds 13d (series I), 16b (series II), 19a (series III) and 19b (series III) were selected as representative examples of each series with strong antibacterial activities (particularly against S. aureus). As AMPs are known to be membrane-targeting, membrane permeability assays are frequently used to confirm the mode of action of peptidomimetics. In this assay, S. aureus and E. coli were treated with the active compounds in the presence of the membrane potential-sensitive cyanine dye 3,3′-dipropylthiadicarbocyanine iodide (DiSC3(5)). Perturbation of the membrane by the compounds leads to loss of the membrane potential gradient (depolarization), causing the dye to be released into the medium and resulting in an increase in fluorescence intensity.
(§5) The method was adopted from Wu et al. with slight modifications. Bacterial cytoplasmic membrane permeability was determined using membrane potential sensitive dye diSC3-5 (3,3′-dipropylthiadicarbocyanine iodide) which penetrates inside bacterial cells depending on the membrane potential gradient of the cytoplasmic membrane. Bacteria were grown in MHB to mid-log phase by incubating with shaking at 37 °C for 18–24 h. Following incubation, bacteria were washed with 5 mM HEPES containing 20 mM glucose pH 7.2 and resuspended in the same buffer to an OD600 0.05–0.06 which gave 1 × 10^7 CFU/mL. The dye diSC3-5 was added at 4 µM to the bacterial suspension. The suspensions were incubated at room temperature for 1 h in the dark for maximum dye take-up by the bacterial cells. Then, 100 mM KCl was added to balance the K+ outside and inside the bacterial cell to prevent further uptake or outflow of the dye. For Gram-negative bacteria, 0.5 mM EDTA was used to destabilize the lipopolysaccharides-Mg^2+-Ca^2+ complex to help in dye penetration without affecting bacterial growth. A total of 100 µL of bacterial suspension was added to 96-well microtiter plate and with equal volume of antimicrobial compounds. DMSO (20%) was set as a positive control while dye and only bacterial cells were set as a negative control. Fluorescence was measured with a luminescence spectrophotometer at 3 min intervals at an excitation wavelength of 622 nm and an emission wavelength of 670 nm.
(§6) Figure 2 Cytoplasmic membrane depolarization of S. aureus 38 and E. coli K12 by 13d, 16b, 19a, 19b, as assessed by release of the membrane potential-sensitive dye DiSC3(5) measured spectroscopically at λex = 622 nm and λem = 670 nm at 2× MIC concentration. Data are presented as means (±SD) of three independent repeats. 20% DMSO was used as a positive control.

E. coli K12 = assay: as above; assay type: cell-based; settings: 2× MIC
Procedure: as §4, §5, §6

MRC-5 human fibroblasts [5] = tested on: MRC-5 human fibroblasts; set-up: method as in PMID 30070287; settings: cited from earlier work
S. aureus [6] = tested on: S. aureus; set-up: method as in PMID 30070287; settings: cited from earlier work
E. coli [7] = tested on: E. coli; set-up: method as in PMID 30070287; settings: cited from earlier work

Structure (SMILES)	disruption of established S. aureus biofilm (S. aureus biofilms; 4× MIC (15.6 µM))	IC50 (MRC-5 human fibroblasts [1])	disruption of established E. coli biofilm (in words) (E. coli biofilms)	membrane damage (clustering of GFP fluorescence) [2]	MIC90 (S. aureus [3]; Staphylococcus aureus)	MIC90 (E. coli [4])	disruption of established S. aureus biofilm (S. aureus biofilms; 2× MIC (31.2 µM))	disruption of established S. aureus biofilm (S. aureus biofilms; 8× MIC (125 µM))	disruption of E. coli biofilm mass (E. coli biofilms)	MIC (S. aureus [3]; Staphylococcus aureus)	MIC (E. coli [4])	cytoplasmic membrane depolarization (DiSC3(5) release) (S. aureus 38)	cytoplasmic membrane depolarization (DiSC3(5) release) (E. coli K12)	other results
NCCNC(=O)[C@H](Cc1c[nH]c2ccccc12)NC(=O)c1cc(-c2ccc3ccccc3c2)ccc1N [Compound 16b, (S)-2-amino-N-(1-((2-aminoethyl)amino)-3-(1H-indol-3-yl)-1-oxopropan-2-yl)-5-(naphthalen-2-yl)benzamide]	93%	24.6 µM	not effective	caused membrane damage	3.9 µM (≈ 1.92 µg/mL)	31.2 µM (≈ 15.3 µg/mL)	–	–	–	–	–	–	–	–
NCCCC[C@H](N)C(=O)NCCNC(=O)[C@H](Cc1c[nH]c2ccccc12)NC(=O)c1cc(Br)ccc1NC(=O)c1cccc(-c2ccccc2)c1 [Compound 19b, N-(4-bromo-2-(((S)-1-((2-((S)-2,6-diaminohexanamido)ethyl)amino)-3-(1H-indol-3-yl)-1-oxopropan-2-yl)carbamoyl)phenyl)-[1,1′-biphenyl]-3-carboxamide]	–	164 µM	significant disruption	caused membrane damage	15.6 µM (≈ 11.7 µg/mL)	15.6 µM (≈ 11.7 µg/mL)	over 60%	~99%	little effect	15.6 µM (≈ 11.7 µg/mL)	15.6 µM (≈ 11.7 µg/mL)	reversed trend	–	therapeutic window: IC50 to human cells over MIC90 (MRC-5 human fibroblasts [1]; IC50 MRC-5 versus MIC90 for either S. aureus or E. coli): over 10 times; MIC90 (S. aureus [3]): 15.6 µM (≈ 11.7 µg/mL)
NCCCC[C@H](N)C(=O)NCCNC(=O)[C@H](Cc1c[nH]c2ccccc12)NC(=O)c1cc(Br)ccc1NC(=O)c1ccc2ccccc2c1 [Compound 19a, N-(4-bromo-2-(((S)-1-((2-((S)-2,6-diaminohexanamido)ethyl)amino)-3-(1H-indol-3-yl)-1-oxopropan-2-yl)carbamoyl)phenyl)-2-naphthamide]	–	83.9 µM	not effective	caused membrane damage	15.6 µM (≈ 11.3 µg/mL)	15.6 µM (≈ 11.3 µg/mL)	over 60%	~99%	–	15.6 µM (≈ 11.3 µg/mL)	15.6 µM (≈ 11.3 µg/mL)	–	greater membrane disruption in E. coli than in S. aureus	improvement in antibacterial activity against E. coli compared to the parent compound (E. coli [4]; versus parent 12a, 12j): > 16 fold
COc1cc2ccccc2cc1C(=O)Nc1ccc(Br)cc1C(=O)N[C@@H](Cc1c[nH]c2ccccc12)C(=O)NCCCN [Compound 13d, (S)-N-(2-((1-((3-aminopropyl)amino)-3-(1H-indol-3-yl)-1-oxopropan-2-yl)carbamoyl)-4-bromophenyl)-3-methoxy-2-naphthamide]	75%	–	significant disruption	–	3.9 µM (≈ 2.51 µg/mL)	62.5 µM (≈ 40.2 µg/mL)	–	–	59%	–	–	relatively inactive	relatively inactive	disruption of established S. aureus biofilm (S. aureus biofilms; 8× MIC (31.2 µM)): 99%
NCCNC(=O)[C@H](Cc1c[nH]c2ccccc12)NC(=O)c1cc(Br)ccc1NC(=O)c1ccc2ccccc2c1 [Compound 12a]	–	–	–	–	–	–	–	–	–	–	–	–	–	IC50 (MRC-5 human fibroblasts [5]): < 20 µM; MIC S. aureus (S. aureus [6]; Table 2, parent compound): 3.9 µM (≈ 2.33 µg/mL); MIC90 S. aureus (S. aureus [6]; value of earlier paper): 3.9 µM (≈ 2.33 µg/mL); MIC E. coli (E. coli [7]; Table 2, parent compound): > 125 µM; MIC90 E. coli (E. coli [7]; value of earlier paper): > 125 µM

From article PMC10044445, “Tuning the Anthranilamide Peptidomimetic Design to Selectively Target Planktonic Bacteria and Biofilm” (Antibiotics, 2023)
